Structures are written as SMILES. Calls of active or inactive are those of the source. The rule behind the calls is not given here. Where only a bound is given, the exact number is not on record here.

The values below come from ChEMBL document CHEMBL3046894, “Synthesis and Herbicidal Activity of Pyrimidinyl Salicylic and Thiosalicylic Acids” (J Pestic Sci, 1996).

The subject of series [1] is Gossypium hirsutum. The series is described as follows: (§1) Post-emergence phytotoxicity against Gossypium hirsutum (cotton) assessed as mortality at 6.3 g a.i/10 a applied 11 days after germination as foliar spray. The series is classed as organism-based. The note with it: in vivo, other, 264 h.
Series [2] concerns Echinochloa crus-galli. The series is described as follows: Post-emergence herbicidal activity against Echinochloa crus-galli (barnyard grass) assessed as mortality at 1.6 g a.i/10 a applied 11 days after germination as foliar spray. Format: functional. The settings on record: 264 h.
Series [3] concerns Xanthium strumarium. The series is described as follows: Post-emergence herbicidal activity against Xanthium strumarium (cocklebur) assessed as mortality per 10 acre. Format: functional.
Series [4] deals with Ipomoea lacunosa. The series is described as follows: Post-emergence herbicidal activity against Ipomoea lacunosa assessed as mortality per 10 acre. The series is classed as functional.
The subject of series [5] is Persicaria nodosa. The experiment in a line: Post-emergence herbicidal activity against Persicaria nodosa assessed as mortality per 10 acre. The series is classed as functional.
Series [6] deals with Gossypium hirsutum. The experiment in a line: Post-emergence phytotoxicity against Gossypium hirsutum (cotton) assessed as mortality per 10 acre. The settings on record: in vivo. The series is classed as organism-based.
The test system of series [7] is Zea mays. The experiment in a line: Post-emergence phytotoxicity against Zea mays (maize) assessed as mortality at 6.3 g a.i/10 a applied 11 days after germination as foliar spray. The note with it: in vivo, other, 264 h. The series is classed as organism-based.
Series [8] deals with Glycine max. The experiment in a line: Post-emergence phytotoxicity against Glycine max (soybean) assessed as mortality at 1.6 g a.i/10 a applied 11 days after germination as foliar spray. The series is classed as organism-based. The note with it: in vivo, other, 264 h.
For series [9], the system named is Ipomoea lacunosa. The series is described as follows: Post-emergence herbicidal activity against Ipomoea lacunosa assessed as mortality at 1.6 g a.i/10 a applied 11 days after germination as foliar spray. Format: functional. The settings on record: 264 h.
Series [10] has as its system Zea mays. The series is described as follows: Pre-emergence phytotoxicity against Zea mays (maize) assessed as mortality at 6.3 g a.i/10 a. Format: organism-based. The settings on record: in vivo, other.
Series [11] relates to Gossypium hirsutum. The series is described as follows: Pre-emergence phytotoxicity against Gossypium hirsutum (cotton) assessed as mortality at 1.6 g a.i/10 a. Format: organism-based. The settings on record: in vivo, other.
Series [12] concerns Xanthium strumarium. The experiment in a line: Pre-emergence herbicidal activity against Xanthium strumarium (cocklebur) assessed as mortality per 10 acre. Format: functional.
In series [13] the test system is Persicaria nodosa. The series is described as follows: Pre-emergence herbicidal activity against Persicaria nodosa assessed as mortality per 10 acre. The series is classed as functional.
For series [14], the system named is Gossypium hirsutum. The series is described as follows: Pre-emergence phytotoxicity against Gossypium hirsutum (cotton) assessed as mortality per 10 acre. The series is classed as organism-based. The settings on record: in vivo.
Series [15] concerns Glycine max. The series is described as follows: Post-emergence phytotoxicity against Glycine max (soybean) assessed as mortality at 6.3 g a.i/10 a applied 11 days after germination as foliar spray. The series is classed as organism-based. The settings on record: in vivo, other, 264 h.
Series [16] relates to Glycine max. The series is described as follows: (§2) Pre-emergence phytotoxicity against Glycine max (soybean) assessed as mortality at 6.3 g a.i/10 a. Format: organism-based. The settings on record: in vivo, other.
In series [17] the test system is Ipomoea lacunosa. The series is described as follows: Pre-emergence herbicidal activity against Ipomoea lacunosa assessed as mortality at 1.6 g a.i/10 a. The series is classed as functional.
Series [18] relates to Amaranthus retroflexus. The series is described as follows: Pre-emergence herbicidal activity against Amaranthus retroflexus assessed as mortality per 10 acre. Format: functional.
Series [19] has as its system Echinochloa crus-galli. The experiment in a line: Post-emergence herbicidal activity against Echinochloa crus-galli (barnyard grass) assessed as mortality per 10 acre. Format: functional.
The subject of series [20] is Xanthium strumarium. The experiment in a line: Pre-emergence herbicidal activity against Xanthium strumarium (cocklebur) assessed as mortality at 6.3 g a.i/10 a. The series is classed as functional.
Series [21] has as its system Zea mays. The series is described as follows: (§3) Pre-emergence phytotoxicity against Zea mays (maize) assessed as mortality at 1.6 g a.i/10 a. Format: organism-based. The note with it: in vivo, other.
Series [22] deals with Ipomoea lacunosa. The series is described as follows: Pre-emergence herbicidal activity against Ipomoea lacunosa assessed as mortality at 6.3 g a.i/10 a. The series is classed as functional.
In series [23] the test system is Xanthium strumarium. The experiment in a line: Pre-emergence herbicidal activity against Xanthium strumarium (cocklebur) assessed as mortality at 1.6 g a.i/10 a. Format: functional.
For series [24], the system named is Amaranthus retroflexus. The experiment in a line: Post-emergence herbicidal activity against Amaranthus retroflexus assessed as mortality per 10 acre. Format: functional.
A short description of series [25]: (§4) Pre-emergence phytotoxicity against Glycine max (soybean) assessed as mortality at 1.6 g a.i/10 a. Format: organism-based. The note with it: in vivo, 1.6 g a.i/10 a, read-out: Activity.
Series [26] concerns Ipomoea lacunosa. The experiment in a line: Pre-emergence herbicidal activity against Ipomoea lacunosa assessed as mortality per 10 acre. Format: functional.
Series [27] deals with Zea mays. The series is described as follows: (§5) Post-emergence phytotoxicity against Zea mays (maize) assessed as mortality at 1.6 g a.i/10 a applied 11 days after germination as foliar spray. Format: organism-based. The settings on record: in vivo, other, 264 h.
Series [28] relates to Echinochloa crus-galli. The experiment in a line: Pre-emergence herbicidal activity against Echinochloa crus-galli (barnyard grass) assessed as mortality per 10 acre. The series is classed as functional.
Series [29] in a line: Pre-emergence phytotoxicity against Gossypium hirsutum (cotton) assessed as mortality at 6.3 g a.i/10 a. The series is classed as organism-based. The note with it: in vivo, 6.3 g a.i/10 a, read-out: Activity.
For series [30], the system named is Ipomoea lacunosa. The series is described as follows: Post-emergence herbicidal activity against Ipomoea lacunosa assessed as mortality at 6.3 g a.i/10 a applied 11 days after germination as foliar spray. The series is classed as functional. The note with it: 264 h.
Series [31] relates to Gossypium hirsutum. The series is described as follows: (§6) Post-emergence phytotoxicity against Gossypium hirsutum (cotton) assessed as mortality at 1.6 g a.i/10 a applied 11 days after germination as foliar spray. Format: organism-based. The note with it: in vivo, other, 264 h.
Series [32] concerns Abutilon theophrasti. The experiment in a line: Post-emergence herbicidal activity against Abutilon theophrasti (velvetleaf) assessed as mortality at 6.3 g a.i/10 a applied 11 days after germination as foliar spray. Format: functional. The note with it: 264 h.
The subject of series [33] is Abutilon theophrasti. The series is described as follows: Pre-emergence herbicidal activity against Abutilon theophrasti (velvetleaf) assessed as mortality at 1.6 g a.i/10 a. The series is classed as functional.
The nature of series [34]: as §2. Format: organism-based. The note with it: in vivo, 6.3 g a.i/10 a, read-out: Activity.
Series [35] can be described thus: as §3. The note with it: in vivo, 1.6 g a.i/10 a, read-out: Activity. The series is classed as organism-based.
Series [36] relates to Echinochloa crus-galli. The experiment in a line: Post-emergence herbicidal activity against Echinochloa crus-galli (barnyard grass) assessed as mortality at 6.3 g a.i/10 a applied 11 days after germination as foliar spray. The series is classed as functional. The note with it: 264 h.
Series [37] concerns Abutilon theophrasti. The experiment in a line: Pre-emergence herbicidal activity against Abutilon theophrasti (velvetleaf) assessed as mortality at 6.3 g a.i/10 a. The series is classed as functional.
Series [38] has as its system Echinochloa crus-galli. The experiment in a line: Pre-emergence herbicidal activity against Echinochloa crus-galli (barnyard grass) assessed as mortality at 6.3 g a.i/10 a. Format: functional.
Series [39] concerns Abutilon theophrasti. The series is described as follows: Post-emergence herbicidal activity against Abutilon theophrasti (velvetleaf) assessed as mortality at 1.6 g a.i/10 a applied 11 days after germination as foliar spray. Format: functional. The settings on record: 264 h.
Series [40] in a line: as §1. Format: organism-based. The note with it: in vivo, 6.3 g a.i/10 a.
Series [41] relates to Glycine max. The description is as §4. Format: organism-based. The note with it: in vivo, other.
Series [42] in a line: as §5. The note with it: in vivo, 1.6 g a.i/10 a. The series is classed as organism-based.
Series [43] can be described thus: as §6. The series is classed as organism-based. The note with it: in vivo, 1.6 g a.i/10 a.

For the compound `COc1cc(OC)nc(Sc2cccc(C)c2C(=O)O)n1`, the Activity entry in the series with Gossypium hirsutum [1] is “Non-toxic”; in the series with Zea mays [7], “Toxic”; in the series on Glycine max [8], “Toxic”; in the series with Zea mays [10] it was “Toxic”; in the series with Gossypium hirsutum [11], under 50%; with Glycine max [15], “Toxic”. For the same compound, the Activity result in the series with Glycine max [16] is “Non-toxic”; with Ipomoea lacunosa [17] it was under 50%; in the series with Xanthium strumarium [20] it was under 50%; in the series on Zea mays [21] it was “Toxic”; with Ipomoea lacunosa [22] it was under 50%; with Xanthium strumarium [23], under 50%. The values for the Activity result in the series on Zea mays [27] and with Gossypium hirsutum [31] were “Toxic” and “Non-toxic”, respectively. Also, the mortality at 16 g/ha in the series with Echinochloa crus-galli [2] and in the series with Ipomoea lacunosa [9] was under 5% throughout. Also, the ED90 in the series on Xanthium strumarium [3] is 25 gAi; in the series with Ipomoea lacunosa [4] it was 50 gAi; in the series on Xanthium strumarium [12], 25 gAi; with Echinochloa crus-galli [19], 100 gAi; in the series on Ipomoea lacunosa [26] it was 50 gAi; with Echinochloa crus-galli [28], 100 gAi. In addition, the ED90 entry in the series with Persicaria nodosa [5], in the series on Persicaria nodosa [13], in the series with Amaranthus retroflexus [18] and in the series on Amaranthus retroflexus [24] was “Active” each time. Moreover, the ED20 in the series with Gossypium hirsutum [6] and in the series with Gossypium hirsutum [14] was 100 gAi each time. Further, the mortality in series [25] and in series [29] was under 50% in each case. For the same compound, the mortality at 63 g/ha with Ipomoea lacunosa [30] is under 5%.

For `CCSc1cccc(Sc2nc(OC)cc(OC)n2)c1C(=O)O`, the Activity entry in the series with Gossypium hirsutum [1] is on record as “Non-toxic”; with Zea mays [7], “Toxic”; in the series on Glycine max [8], “Toxic”; with Zea mays [10] it was “Non-toxic”; in the series with Abutilon theophrasti [33], under 50%; in the series with Gossypium hirsutum [11] it was under 50%. The Activity entry in the series on Glycine max [15] was “Toxic”; in the series on Ipomoea lacunosa [17] it was under 50%; in the series on Xanthium strumarium [20], under 50%; with Xanthium strumarium [23], under 50%; with Zea mays [27], “Toxic”; in the series with Gossypium hirsutum [31], “Non-toxic”. The mortality at 16 g/ha in the series on Echinochloa crus-galli [2] was under 5%. Besides, the mortality at 63 g/ha in the series on Abutilon theophrasti [32] is over 90%; in the series with Echinochloa crus-galli [36], under 5%. In addition, the mortality in series [34], in [35], in series [25] and in [29] was under 50% throughout.

With `CCOc1cccc(Sc2nc(OC)cc(OC)n2)c1C(=O)O`, the Activity result is “Toxic” in the series on Gossypium hirsutum [1]; under 50% with Abutilon theophrasti [37]; “Toxic” with Glycine max [8]; “Toxic” in the series on Zea mays [10]; under 50% with Abutilon theophrasti [33]; under 50% with Gossypium hirsutum [11]. In addition, the Activity result with Glycine max [15] is reported as “Toxic”; in the series with Ipomoea lacunosa [17], under 50%; in the series with Echinochloa crus-galli [38], over 90%; with Zea mays [21] it was “Non-toxic”; in the series on Ipomoea lacunosa [22], under 50%; in the series on Zea mays [27], “Toxic”. The Activity result with Gossypium hirsutum [31] is listed as “Toxic”. The mortality at 16 g/ha with Echinochloa crus-galli [2] was under 5%; in the series on Abutilon theophrasti [39], over 90%. Besides, in the series with Abutilon theophrasti [32], the mortality at 63 g/ha was over 90%. Besides, the mortality in [34], in [25] and in series [29] was under 50% in each case.

On to `COc1cc(OC)nc(Sc2cccc(I)c2C(=O)O)n1`, for which the mortality at 264 h was under 5% in series [40], over 90% in [42] and under 5% in series [43]. Also, the mortality at 63 g/ha with Abutilon theophrasti [32] is over 90%. For the same compound, the Activity entry in the series with Glycine max [8] is on record as “Toxic”; with Zea mays [10], over 90%; with Gossypium hirsutum [11], under 50%; with Glycine max [15], “Toxic”; with Glycine max [16] it was “Toxic”; in the series with Ipomoea lacunosa [17], under 50%. In addition, the Activity entry in the series on Zea mays [21] was “Toxic”; in the series on Xanthium strumarium [23], under 50%; in the series on Glycine max [41], “Non-toxic”. For the same compound, the mortality in [29] was under 50%.
